Earlier results as cited in patent US12508269B2, “Parenteral dosage form of carboplatin” (priority 2018, dated 2025).

[NH2][Pt]1([NH2])[O]C(=O)C2(CCC2)C(=O)[O]1 [carboplatin, diammine [1,1-cyclobutanedicarboxylato(2-)-0, 0′]]
time for which reconstituted or diluted aqueous solutions were stable (Myres et al, refrigeration in the dark or room temperature exposed to fluorescent light): seven | time for which reconstituted solutions are stable (pack insert of Paraplatin and references): 8 h
